From patent US20150376216A1, “SUGAR-ANALOG PHOSPHORUS-CONTAINING HETEROCYCLES HAVING AN ANTI-METASTATIC ACTIVITY” (CENTRE NATIONAL DE LA RECHERCHE SCIENTIRIQUE, priority 2013, published 2015) come the findings set out here.

One assay has as its system MDAMB-231. The assay can be described thus: MTT antiproliferative test, MDAMB-231. It is filed as cell-based. The conditions noted are these: Homo sapiens, MDA-MB-231, read-out: IC50, inhibition of proliferation. Here is the method: (§1) The lines MDAMB-435 and A431 are seeded at a density of 3000 cells per well in 96-well plates. After 24 hours, compounds 4.2a and 5.6d resuspended in 100% DMSO are added at concentrations of 0-0.001-0.010-0.1-1-10-50 μM for a final constant amount of DMSO of 0.3%. The cultures are maintained for a further 72 hours and an MTT colorimetric test is then performed. 100 μl of a solution of MTT at 5 mg/ml in PBS are added to the culture medium, which is left to incubate for 3 hours. The culture medium is removed and the cells are lyzed by adding 100 μL of a 4 mM HCl solvent, 0.1% Nondet P-40 (NP40) in isopropanol. The yellow tetrazolium MTT salt (3-(4,5-dimethylthiazol-2-yl)-2,5-diphenyl tetrazolium bromide), when it is reduced by the mitochondrial succinate dehydrogenase of active live cells, forms a blue-violet formazan product. The medium then changes from yellow to blue-violet. The intensity of this coloration at 590 nm is proportional to the number of live cells present during the test and gives an indication of the metabolic activity of these cells.
(§2) Table 1 gives the concentration values for 50% inhibition of proliferation (IC50) for compounds 4.2a and 5.6d on lines derived from bowel cancer (CaCo2), skin cancer (A431, MDAMB-435, B16F10), breast cancer (MDAMB-431), […] (HuH7), prostate cancer (DU145) and brain cancer (SNB75, Gli4, Gli7).
For orientation: Tetrazolium assays rely on reduction of a dye to a coloured formazan, in cell work by metabolically active cells.

The test system of a further assay is HuH7. The assay can be described thus: MTT antiproliferative test, HuH7. Type of assay: cell-based. The note with it: Homo sapiens, Huh-7, read-out: IC50, inhibition of proliferation. How it is done:
as §1, §2

Another assay concerns MDAMB-435 cells. The assay can be described thus: MDAMB-435 subcutaneous model. It is filed as in vivo, mice. How it is done: A suspension of 1×10^6 MDAMB-435 cells in 100 μl of sterile PBS (phosphate-buffered saline, supplied by Fisher) was injected into each mouse (subcutaneous administration, with anesthesia, in the mammary gland of the left hind quarter). Once a control pregroup of three mice presented the first metastases (liver, intestine, ovary), the protocol was conducted with […] of eight mice. The five groups of mice were treated using one of the five formulations described below:
Group A: Treatment by injection of 100 μl of NaCl (control N° 1).
Group B: Treatment by injection of 100 to 150 μl according to the weight of the mice of formulation 2 not containing compound 4.2a (control N° 2).
Group C: Treatment with compound 4.2a at a rate of 10 mg/kg with volumes of 100 to 150 μl of formulation 2 depending on the weight of the mice.
Group D: Treatment with compound 4.2a at a rate of 5 mg/kg with volumes of 100 to 150 μl of formulation 2 depending on the weight of the mice.
Each batch was treated by intravenous injection into the caudal vein of 100 to 150 μl of solution (precision syringe and G25X1 needle ultrafine wall, VWR). Three injections per week for four weeks were performed. The mice were weighed at each injection. The mice were sacrificed after four weeks, and the tumors and organs (liver, kidney, spleen, brain, intestine, heart, muscles) were removed. A histological analysis was performed on these organs.

The test system of a further assay is SNB75 glioblastoma line. The assay can be described thus: MTT antiproliferative test, SNB75. Type of assay: cell-based. The note with it: Homo sapiens, SNB-75, read-out: IC50, inhibition of proliferation. How it is done: (§3) Several cancer cell lines were used for the in vivo or in vitro biological tests: • SNB75 is a human glioblastoma line derived from a primary culture, i.e. derived from a primary malignant cancer tumor. It forms part of the panel of 59 cancer lines referenced by the NCI. Its Cosmic reference number published by the Welcome Trust Sanger Institute is 905982. This line was supplied by a person (M.D. Ph.D of the department of “Radiation Oncology”, Stanford University Medical Center). It was cultured in Ham's F-12 and DMEM (1/1) supplemented with 10% fetal bovine serum. The experiments were performed with cells in the exponential growth phase. • Gli4 (or Gli4F11) and Gli7 are cultures of cancer strain cells derived from human glioblastomas (primary cultures). These lines are CD133^+, CD15^+ which are multipotent and tumorigenic in animals. They were established by J. P. Hugnot (INM INSERM U-1051 Eq. 4), and described in Guichet, P. O. et al, Glia 2013, 61(2), 225-239; • C6 is a rat glioblastoma line. It is referenced in the ATCC under the reference CCL-107. • MDAMB-435 is a melanoma line derived from a mammary melanoma. It forms part of the panel of 59 cancer lines referenced by the NCI. It is referenced at the ATCC under the reference HTB-129. It was cultured in Ham's F-12 and DMEM (1/1) supplemented with 10% fetal bovine serum. […]

The next assay deals with GLi4. The assay can be described thus: MTT antiproliferative test, Gli4. Type of assay: cell-based. The conditions noted are these: Homo sapiens, read-out: IC50, inhibition of proliferation. Here is the method: as §3
Where [1] appears, read: 10 and 5 mg/kg i.v. (groups C and D), three injections per week for four weeks.

For `CC1(C)O[C@H]2[C@@H]([C@H]3COC(C)(C)O3)O[P@](=O)(c3ccccc3)[C@@H](OC(=O)c3ccccc3)[C@H]2O1` [Compound 4.2a, (SPRSRR)-3-benzoate-4-(2,2-dimethyl-[1,3]dioxolan-4-yl)-2,2-dimethyl-2-oxo-2-phenyl-tetrahydro-2λ^5-[1,2]oxaphosphinane], the IC50 was 1.16 µM in the assay with MDAMB-231, > 100 µM with HuH7, 9.54 µM in the assay on SNB75 glioblastoma line and 6.81 µM with GLi4. The “Metastases in the ovaries (FIG. 4)” value in the assay with MDAMB-435 cells (10 and 5 mg/kg (groups C and D)) is “absence of metastases”. Moreover, the “Number of metastases per mouse (FIG. 5)” value with MDAMB-435 cells (10 and 5 mg/kg (groups C and D), controls predominantly more than two) is “none of the mice treated with compound 4.2a (groups C and D) developed more than two metastases”. For the same compound, the “Metastatic development (size of metastases)” value with MDAMB-435 cells (setting [1]) was “a reduction in metastatic development (small-sized metastases)”. Moreover, in the assay with MDAMB-435 cells (setting [1]), the Number of metastases result is “a large reduction in the number of metastases”. The “Mass distribution of secondary tumors (FIG. 6)” value in the assay with MDAMB-435 cells (as a function of the treatment conditions) is listed as “reduced the development of metastases”.
